Square brackets hold non-standard residues; d marks the D form. Peptide text beside a SMILES is read from it. Orn = NCCC[C@H](N)C(=O)O
System: SARS-CoV-2
Test: microbe, parasite or virus in culture
Conditions: Severe acute respiratory syndrome coronavirus 2, Vero C1008, 48 h

SMILES	IC50 [µM]	IC50 (read-out: pIC50 (converted)) [µM]
CN[C@@H]1[C@@H](O)[C@@H](O[C@@H]2[C@@H](O)[C@H](O[C@H]3O[C@H]([C@@H](C)NC)CC[C@H]3N)[C@@H](N)C[C@H]2N)OC[C@]1(C)O [GENTAMICIN C1]	> 20	> 20
CN(C)c1ccc(C(=C2C=CC(=[N+](C)C)C=C2)c2ccc(N(C)C)cc2)cc1 [GENTIAN VIOLET]	> 20	> 20
O=C(O)c1cc(O)ccc1O [GENTISIC ACID]	> 20	> 20
C[C@H](N)Cc1cccc(O)c1 [GEPEFRINE]	> 20	> 20
CC1(C)CC(=O)N(CCCCN2CCN(c3ncccn3)CC2)C(=O)C1 [GEPIRONE]	> 20	> 20
C#C[C@]1(O)C=C[C@H]2[C@@H]3CCC4=CC(=O)CC[C@@H]4[C@H]3CC[C@@]21CC [GESTODENE]	> 20	> 20
C#C[C@]1(O)CC[C@H]2[C@@H]3CCC4=CC(=O)CCC4=C3C=C[C@@]21CC [GESTRINONE]	> 20	> 20
Fc1ccc2[nH]c3c(c2c1)CN(CCCc1cccnc1)CC3 [GEVOTROLINE]	> 20	> 20
C=C1C[C@]23C[C@@]1(O)CC[C@H]2[C@@]12C=C[C@H](O)[C@](C)(C(=O)O1)[C@H]2[C@@H]3C(=O)O [GIBBERELLIN GA3]	> 20	> 20
CCc1nc(C(N)=O)c(Nc2ccc(N3CCC(N4CCN(C)CC4)CC3)c(OC)c2)nc1NC1CCOCC1 [GILTERITINIB]	> 20	> 20
C[C@@H]1C(=O)O[C@H]2C[C@@]34[C@H]5C[C@@H](C(C)(C)C)[C@]36[C@@H](OC(=O)[C@@H]6O)O[C@@]4(C(=O)O5)[C@]21O [GINKGOLIDE A]	> 20	> 20
C[C@H]1O[C@@H](O[C@H]2[C@@H](O)C[C@H](O[C@H]3[C@@H](O)C[C@H](O[C@H]4CC[C@@]5(C)[C@H](CC[C@@H]6[C@@H]5CC[C@]5(C)[C@@H](C7=CC(=O)OC7)[C@@H](O)C[C@]65O)C4)O[C@@H]3C)O[C@@H]2C)C[C@H](O)[C@@H]1O [GITOXIN]	> 20	> 20
O=C(OCC(O)CO)c1ccccc1Nc1ccnc2cc(Cl)ccc12 (centres undefined) [GLAFENINE]	> 20	> 20
CC(C)c1nc(-c2ccccc2)cc(-c2ccc(F)cc2)c1/C=C/[C@@H]1C[C@@H](O)CC(=O)O1 [GLENVASTATIN]	> 20	> 20
COCCNCc1ccc(-c2cc3nccc(Oc4ccc(NC(=S)NC(=O)Cc5ccc(F)cc5)cc4F)c3s2)nc1 [GLESATINIB]	> 20	> 20
Cc1ccc(S(=O)(=O)NC(=O)NN2CC3CCCC3C2)cc1 (centres undefined) [GLICLAZIDE]	> 20	> 20
COc1ccc(F)cc1[C@H](C)NC(=O)Cc1ccc(S(=O)(=O)Nc2ncc(CC(C)C)cn2)cc1 [GLIFLUMIDE]	> 20	> 20
CCC1=C(C)CN(C(=O)NCCc2ccc(S(=O)(=O)NC(=O)N[C@H]3CC[C@H](C)CC3)cc2)C1=O [GLIMEPIRIDE]	> 20	> 20
Cc1cnc(C(=O)NCCc2ccc(S(=O)(=O)NC(=O)NC3CCCCC3)cc2)cn1 [GLIPIZIDE]	> 20	> 20
COc1ccc2c(c1)C(=O)N(CCc1ccc(S(=O)(=O)NC(=O)NC3CCCCC3)cc1)C(=O)C2(C)C [GLIQUIDONE]	> 20	> 20
COc1ccccc1C(=O)NCCc1ccc(S(=O)(=O)NC(=O)NC2CCCC2)cc1 [GLISENTIDE]	> 20	> 20
Cc1cc(C(=O)NCCc2ccc(S(=O)(=O)NC(=O)NN3CCCCCC3)cc2)no1 [GLISOXEPIDE]	> 20	> 20
C[C@]1(C(=O)N(CCCC(=O)O)Cc2cccc(Cl)c2)CCN1C(=O)c1csc2ccccc12 [GLPG-0974]	> 20	> 20
O=C1O[C@H](CO)[C@@H](O)[C@H](O)[C@H]1O [GLUCONOLACTONE]	> 20	> 20
N[C@H]1C(O)O[C@H](CO)[C@@H](O)[C@@H]1O (some centres undefined) [GLUCOSAMINE]	> 20	> 20
N[C@@H](C(=O)O)[C@@H](O)[C@H](O)[C@H](O)CO [GLUCOSAMINIC ACID]	> 20	> 20

SMILES	IC50 [µM]	IC50 (read-out: pIC50 (converted)) [µM]
N[C@@H](CCC(=O)O)C(=O)O [GLUTAMIC ACID]	> 20	> 20
NC(=O)CC[C@H](N)C(=O)O [GLUTAMINE]	> 20	> 20
N[C@@H](CCC(=O)N[C@@H](CS)C(=O)NCC(=O)O)C(=O)O [GLUTATHIONE]	> 20	> 20
CCC1(c2ccccc2)CCC(=O)NC1=O (centres undefined) [GLUTETHIMIDE]	> 20	> 20
COc1ccc(Cl)cc1C(=O)NCCc1ccc(S(=O)(=O)NC(=O)NC2CCCCC2)cc1 [GLYBURIDE]	> 20	> 20
OCC(O)CO [GLYCERIN]	> 20	> 20
CCCCCCCCCCCC(=O)OCC(O)CO (centres undefined) [GLYCEROL MONOLAURATE]	> 20	> 20
CCCCCCCCCCCCCCCC(=O)OCC(O)CO (centres undefined) [GLYCEROL MONOPALMITATE]	> 20	> 20
O=P(O)(O)OC(CO)CO [GLYCERYLPHOSPHATE]	> 20	> 20
NCC(=O)O [GLYCINE]	> 20	> 20
C[C@H](CCC(=O)NCC(=O)O)[C@H]1CC[C@H]2[C@@H]3[C@H](O)C[C@@H]4C[C@H](O)CC[C@]4(C)[C@H]3C[C@H](O)[C@]12C [GLYCOCHOLIC ACID]	> 20	> 20
O=C(O)CO [GLYCOLIC ACID]	> 20	> 20
C[N+]1(C)CCC(OC(=O)C(O)(c2ccccc2)C2CCCC2)C1 (centres undefined) [GLYCOPYRRONIUM]	> 20	> 20
CC1(C)[C@@H](O[C@H]2O[C@H](C(=O)O)[C@@H](O)[C@H](O)[C@H]2O[C@@H]2O[C@H](C(=O)O)[C@@H](O)[C@H](O)[C@H]2O)CC[C@]2(C)[C@H]3C(=O)C=C4[C@@H]5C[C@@](C)(C(=O)O)CC[C@]5(C)CC[C@@]4(C)[C@]3(C)CC[C@@H]12 [GLYCYRRHIZIN]	> 20	> 20
O=C(NC1CCCCC1)NS(=O)(=O)c1ccc2c(c1)CCC2 [GLYHEXAMIDE]	> 20	> 20
COCCOc1cnc(NS(=O)(=O)c2ccccc2)nc1 [GLYMIDINE]	> 20	> 20
Cc1ccc(S(=O)(=O)NC(=O)NC2CCCCCCC2)cc1 [GLYOCTAMIDE]	> 20	> 20
CC(C)C[C@H](NC(=O)CNC(=O)[C@H](Cc1ccc(O)cc1)NC(=O)[C@H](CO)NC(=O)[C@H](Cc1c[nH]c2ccccc12)NC(=O)[C@H](Cc1cnc[nH]1)NC(=O)[C@@H]1CCC(=O)N1)C(=O)N[C@@H](CCCNC(=N)N)C(=O)N1CCC[C@H]1C(=O)NCC(N)=O [GONADORELIN]	> 20	> 20
Cc1cc2c(C(C)C)c(O)c(O)c(C=O)c2c(O)c1-c1c(C)cc2c(C(C)C)c(O)c(O)c(C=O)c2c1O [GOSSYPOL]	> 20	> 20
CC(C)C[C@@H]1NC(=O)[C@H](CCCN)NC(=O)[C@H](C(C)C)NC(=O)[C@@H]2CCCN2C(=O)[C@@H](Cc2ccccc2)NC(=O)[C@H](CC(C)C)NC(=O)[C@H](CCCN)NC(=O)[C@H](C(C)C)NC(=O)[C@@H]2CCCN2C(=O)[C@@H](Cc2ccccc2)NC1=O [GRAMICIDIN S] (cyclo(L[dF]PV[Orn]L[dF]PV[Orn]))	> 20	> 20
CN(C)Cc1c[nH]c2ccccc12 [GRAMINE]	> 20	> 20
CCOC(=O)C(COC(=O)Cc1ccc(NC(=O)c2ccccc2-c2ccc(C(F)(F)F)cc2)c(C(=O)N(C)C)c1)(C(=O)OCC)c1ccccc1 [GRANOTAPIDE]	> 20	> 20
CCc1nc2c(C)nc(C)cc2n1-c1ccc(CCNC(=O)NS(=O)(=O)c2ccc(C)cc2)cc1 [GRAPIPRANT]	> 20	> 20
Cn1c(-c2ccc3c(c2)OCO3)cc(=O)c2ccccc21 [GRAVEOLINE]	> 20	> 20
C=C[C@@H]1C[C@]1(NC(=O)[C@@H]1C[C@@H]2CN1C(=O)[C@H](C(C)(C)C)NC(=O)O[C@@H]1C[C@H]1CCCCCc1nc3ccc(OC)cc3nc1O2)C(=O)NS(=O)(=O)C1CC1 [GRAZOPREVIR ANHYDROUS]	> 20	> 20
COC1=CC(=O)C[C@@H](C)[C@]12Oc1c(Cl)c(OC)cc(OC)c1C2=O [GRISEOFULVIN]	> 20	> 20

Source: ChEMBL document CHEMBL4651402, “Screening of ~5500 FDA-approved drugs and clinical candidates for anti-SARS-CoV-2 activity” (2021)
